# Measurements published in patent publication US10327423B2, “Antimicrobial compounds and compositions, and uses thereof” (Akeso Biomedical, Inc., priority 2014, dated 2019).
# “Also recorded” adds a separate entry of the source.
# Experiments:
# H. pylori strain 17875 = assay: Binding of I-125 labelled Le^b to H. pylori (bound/free); design: species or system Helicobacter pylori; details: increasing Fe-QA concentration; pH 7.4
# Method: Binding of Le^b to H. pylori strain 17875 at pH 7.4 was assayed by labeling Le^b with radioactive iodine (1-125), mixing the radioactive antigen with H. pylori bacteria, pelletizing the bacteria using a centrifuge, and measuring the radioactivity in the pellet and in the supernatant. Any Le^b that is bound to the bacteria is quantified by the measurement of radioactivity in the pellet. The ratio of the radioactivity in the pellet to the supernatant therefore corresponds to the ratio of Le^b bound by the bacteria to that which remains unbound, expressed as bound/free.
# [1] = system: Pseudomonas aeruginosa (PAO-1 Clinical); assay: Growth curve of antibiotic resistant clinical isolate with kanamycin and FeQ; format: cell-based; details: kanamycin and FeQ added to growth media
# Method: The impact on the growth curve of an antibiotic resistant clinical isolate of Pseudomonas aeruginosa (PAO-1 Clinical) grown in the presence of kanamycin and FeQ versus the clinical isolate grown in the presence of (i) FeQ, (ii) kanamycin or (iii) without addition of FeQ or kanamycin (control) was assessed.
# [2] = system: bacterial flora present in the mouth; assay: Biofilm formation on extracted human teeth (CEPLAC staining); format: cell-based; details: FeQ 340 μM; 48 hours of culturing
# Method: Molar teeth were extracted from human patients, and mouth swabs taken from each patient to obtain samples of each patient's bacterial flora present in the mouth. The mouth swabs were cultured in the laboratory using LB media in order to grow bacterial populations ordinarily present in the mouth of each patient. The extracted teeth were washed and brushed extensively using PBS buffer and ethanol. Each patient's tooth was then placed in the bacterial culture prepared from that patient's bacterial flora sample, and cultured aerobically for 24 hours in LB media. The teeth were then stained with CEPLAC™ (Manx Healthcare Ltd, Warwick, UK), and washed three times with PBS-Tween (50 mL) to determine if biofilm had been formed on the teeth.
# All teeth stained red indicating the presence of biofilm on the teeth after just 24 hours. The same teeth were then cleaned using PBS buffer and ethanol, and the procedure repeated except with 48 hours of culturing in the presence of FeQ (340 μM).
# Campylobacter = Campylobacter carriage in chickens (cfu/g of droppings and caeca samples); format: in vivo; details: days 0-42, dirty litter challenge
# Method: A study was performed to evaluate growth promotion and reduction of Campylobacter carriage using FeQ and FeTyr in Ross 308 male broilers with 7 treatment groups. Each treatment group comprised four replicates of 10 birds per pen (40 birds/treatment group and 4 pens of 10 birds/treatment group), and there were 2 control groups and 5 test groups. All the test groups and one of the control groups were exposed at day 20 of the trial to dirty litter, which tested positive for Campylobacter. This method was used to provide a more natural method to Campylobacter challenge the birds. Thus there was a positive control where one treatment group was challenged with Campylobacter and one negative control group where the birds were not challenged, and five treatment groups that were all challenged with Campylobacter. The total number of birds used in the 7 treatment groups was 280. Treatment group 1 was a negative control where birds just received the commercial feed, and were not challenged with dirty litter containing Campylobacter. Treatment group 2 was the positive control where the birds received the commercial feed, and were challenged with dirty litter containing Campylobacter at day 20. Treatment group 3 received 0.22 g/L of FeQ in their drinking water and 0.22 g/Kg FeQ in their feed during the entire trial, and was challenged with dirty litter containing Campylobacter at day 20. Treatment group 5 received 0.22 g/L of FeQ in their drinking water during the entire trial, and was challenged with dirty litter containing Campylobacter at day 20. Treatment group 6 received 0.22 g/kg FeQ in their feed during the entire trial, and was challenged with dirty litter containing Campylobacter at day 20. […]
# Prior to challenging the chickens with dirty litter containing Campylobacter at day 20, each pen was tested for Campylobacter using cloacal swabs. […] Samples were analyzed for blood chemistry, including analysis for alkaline phosphatase, aspartate amino transferase, alanine amino transferase, gamma-glutamyl transferase, lactate dehydrogenase, total protein, albumin, globulin, amylase and glucose.
# [3] = system: Camyplobacter jejuni NCTC 11168; assay: Motility on brain-heart infusion plate; format: cell-based, Campylobacter jejuni; details: FeQ 34 μM; 43 hours
# Method: Camyplobacter jejuni NCTC 11168 was treated with FeQ (34 μM) and a plate containing brain-heart infusion (BHI) medium inoculated with […], 2×10^5 colony forming units of the treated bacteria and the plate was cultured for 43 hours. The growth and motility of the bacteria after treatment with FeQ was compared to a positive control where the bacteria had not been treated with FeQ, and also to a negative control where no bacteria were applied to a plate of the BHI medium. […] In contrast, Campylobacter jejuni that was not treated with FeQ was motile, and spread around the culture plate. There was no growth visible, as expected, on the plates that were not inoculated with bacteria.
# [4] = Treatment of an acne patient; format: in vivo, human
# Method: A patient was treated continuously for 30 days by applying a solution of ferric quinate (340 μM) to their acne vulgarism (“acne”) once each day. Within 5 days of the start of treatment, their acne, which had not previously responded to treatment with antibiotics, began to show signs of healing.
structure (smiles),measurement,setting,value
"O=C1[O][Fe]23([O]C(=O)[C@]4(C[C@@H](O)[C@H](O)[C@H](O)C4)[O]2)([O]C(=O)[C@]2(C[C@@H](O)[C@H](O)[C@H](O)C2)[O]3)[O][C@@]12C[C@@H](O)[C@H](O)[C@H](O)C2 [FeQ, a complex of quinic acid with Fe III]",competitive inhibition of Le^b binding to H. pylori (bound/free Le^b),H. pylori strain 17875,increasingly inhibits binding
same,growth rate versus kanamycin or FeQ alone,[1],large reduction in the growth rate
same,growth rate versus kanamycin or FeQ alone,[1]; listed as Fe-QA,retarded
same,biofilm on human teeth (red CEPLAC staining),[2],no teeth stained red
same,Campylobacter colony forming units per gram of bird droppings at day 42,Campylobacter; Treatment 7: FeQ 0.022 g/L in drinking water,less of an effect than the other treatment groups
same,average Campylobacter cfu/g of caeca samples at day 42 versus positive control,"Campylobacter; treatment groups 3, 5, 6, 7 (FeQ) and 8 (FeTyr)",lower levels of Campylobacter in their caeca; also recorded: performed better than the positive control
same,motility of bacteria on BHI plate,[3],not motile
same,state of acne after treatment for 30 days,[4]; ferric quinate solution 340 μM once each day,completely healed
same,recurrence of acne after discontinuation of treatment for over one year,[4]; ferric quinate solution 340 μM once each day for 30 days,did not recur
